Source: patent US20140315999A1, “USE OF PROLYL H[…] A RADIOPROTECTIVE DRUG FOR THE LOWER GASTROINTESTINAL TRACT” (priority 2011, published 2014)

Key:
[1] = Mortality, GI toxicity and gross intestinal morphology after DMOG injection; format: in vivo, male C57Bl/6 mice; details: 8 mg DMOG intraperitoneally, mice
GI epithelia = assay: FITC-dextran assay of the GI tract (epithelial integrity) after irradiation; format: in vivo, mice; details: 20 Gy; gavage 0.6 mg/kg FITC-dextran (4 kD); measured four hours later (FIG. 4)
Procedure: FIG. 4 depicts the concentration of FITC-Dextran present in the serum of mice gavaged with 0.6 mg./kg. FITC-Dextran (4 kD) either with or without irradiation and with or without DMOG. Six mice were tested per experimental condition. *p<0.04
Mortality from GI radiotoxicity results from compromised epithelial integrity manifesting as uncontrolled diarrhea or infections from enteric pathogens due to decreased barrier function. To test whether a PHD inhibitor would increase epithelial integrity after radiation insult, a FITC-dextran assay of the GI tract was performed. FITC-dextran cannot cross the GI epithelia, thus its presence in serum is an indication of compromised epithelial integrity. Following irradiation (20 Gy), mice underwent gavage, with the insertion of 0.6 mg/kg of FITC-dextran (4 kD). Four hours later, levels of FITC-dextran were measured in the blood. Treatment with DMOG results in a 3.5-fold decrease in the presence of FITC-dextran in the serum relative to saline control (FIG. 4).

HIF-2 = assay: Western blot for HIF-2 in colonic crypts after DMOG injection; format: in vivo, male C57Bl/6 mice; details: 8 mg DMOG intraperitoneally; 4-12 after DMOG administration
Procedure: (§1) FIG. 1 depicts a Western blot for HIF-1, HIF-2, and β-actin in colonic crypts at the time points indicated after DMOG injection (8 mg.) Each lane represents a different animal.
(§2) In order to assess the kinetic effects of DMOG on the HIF-1 and HIF-2 protein levels, male C57Bl/6 mice were injected with 8 mg. of DMOG intraperitoneally and colonic crypts were harvested at various time points after injection (FIG. 1). A 8 mg dose results in the elevation of HIF1 and HIF2 proteins 4-12 after DMOG administration as determined by Western blot analysis.

intestinal stem cells = assay: Microcolony analysis of colon crypt regeneration after 20 Gy abdominal irradiation; format: in vivo, mice
Procedure: FIG. 2 is a graphical depiction of the crypts identified in transverse sections of colon stained with hematoxylin-eosin (H & E) after they were treated with saline or DMOG 16 hours before radiation, 4 hours before radiation, and then every 24 hours after receiving 20 Gy of abdominal radiation. The data represents the combined results from 8 mice receiving either DMOG or saline. Sixteen sections were analyzed per mouse. *p<0.006.
FIG. 3 is a graphical depiction of the crypts identified in transverse sections of colon stained with H & E in mice irradiated before administration of DMOG. Mice were treated with saline or DMOG 2 hours after receiving 20 Gy of abdominal radiation and then once every 24 hours thereafter for 4.5 days. x-axis, left bar mice treated with saline, right bar mice treated with DMOG; y-axis regenerated crypts. *p<0.005.
Radio- and chemotoxicity to the GI tract is the result of damage to the intestinal stem cell located within the crypts of Lieberkühn. The intestinal stem cell, defined by its expression of LGR5 is the most rapidly dividing cell in the GI tract and is therefore susceptible to genotoxic damage. […]

HIF-1 = assay: Western blot for HIF-1 in colonic crypts after DMOG injection; format: in vivo, male C57Bl/6 mice; details: 8 mg DMOG intraperitoneally; 4-12 after DMOG administration
Procedure: as §1, §2

[2] = system: mice receiving 20 Gy of abdominal radiation; assay: Survival following whole-abdominal irradiation (Kaplan-Meier); format: in vivo; details: 20 Gy abdominal radiation, DMOG treatment vs none (FIG. 5)
From the text: FIG. 5 depicts Kaplan-Meier survival analysis of mice following whole-abdominal irradiation (20 Gy) with and without DMOG treatment. p=0.03 (n=12).

SMILES: COC(=O)CNC(=O)C(=O)OC [DMOG, N-(methoxyoxoacetyl)-glycine methyl ester]
- gross morphological changes in the intestine [1]: nor was there obvious gross morphological changes in the intestine
- mortality or GI toxicity [1]: no observed increase in mortality or GI toxicity
- decrease in FITC-dextran in the serum relative to saline control (GI epithelia): 3.5 fold
- HIF2 protein level in colonic crypts (Western blot) (HIF-2): elevation
- enrichment in regenerative capacity of colon relative to saline alone (regenerated crypts) (intestinal stem cells; 8 mg DMOG prior to 20 Gy whole-abdomen irradiation, then daily, sacrifice 4.5 days post irradiation (FIG. 2)): 2 fold
- enrichment in regenerative capacity of colon relative to saline alone (regenerated crypts) (intestinal stem cells; DMOG administered after 20 Gy whole-abdomen irradiation (2 hours after, then every 24 hours), 4.5 days (FIG. 3)): 2 fold
- HIF1 protein level in colonic crypts (Western blot) (HIF-1): elevation
- overall survival [2]: dramatically improved
